Target: T1, ETB (Homo sapiens, UniProt P24530)
T1 construct: expressed in transfected cells; host or cells: CHO
T1 sequence (P24530 27-442): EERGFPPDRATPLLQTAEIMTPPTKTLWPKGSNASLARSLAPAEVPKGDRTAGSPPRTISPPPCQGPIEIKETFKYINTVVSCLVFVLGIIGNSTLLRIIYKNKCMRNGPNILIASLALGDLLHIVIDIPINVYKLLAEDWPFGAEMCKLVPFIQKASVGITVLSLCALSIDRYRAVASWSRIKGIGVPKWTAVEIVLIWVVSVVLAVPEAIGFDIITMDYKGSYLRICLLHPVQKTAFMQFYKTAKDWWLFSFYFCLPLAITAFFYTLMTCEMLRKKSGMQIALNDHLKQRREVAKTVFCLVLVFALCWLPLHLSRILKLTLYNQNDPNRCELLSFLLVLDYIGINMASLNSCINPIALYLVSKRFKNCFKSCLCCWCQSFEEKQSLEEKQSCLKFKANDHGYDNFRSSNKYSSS
Assay: Bioprofiling 6pt Ag ETB CHO
Type: cell-based
Details: agonist readout
Method: (§1) The compounds were evaluated across a panel of 20 liability targets (37 functional assays) which included functional cell-based GPCRs and ion channels in both agonist and antagonist readout, measuring calcium flux and biochemical functional assays for nuclear hormone receptors and phosphodiesterases using TR-FRET format, in a 6 point 1:3 dilution dose series (maximum final concentration of 10 μM).

Structure (SMILES)	EC50 [µM]
N#Cc1ccc2nc(NC(=O)c3ccc(C(F)(F)F)nc3)n(CC(F)(F)F)c2c1 [Compound 45, O=C(c1ccc(C(F)(F)F)nc1)Nc2nc(ccc(C#N)c3)c3n2CC(F)(F)F]	> 10
N#Cc1ccc2nc(NC(=O)c3ccnc(C(F)(F)F)c3)n(CC(F)(F)F)c2c1 [Compound 44, O=C(c1ccnc(C(F)(F)F)c1)Nc2nc(ccc(C#N)c3)c3n2CC(F)(F)F]	> 10
Cn1nccc1C(=O)Nc1nc2ccc(C#N)cc2n1CC(C)(C)C [Compound 29, O=C(Nc1n(CC(C)(C)C)c(c2n1)cc(C#N)cc2)c3n(C)ncc3]	> 10

Tested on: not listed separately
Assay: Medium protein binding
Type: in vitro ADME
Details: % bound
Method: For plasma protein binding, pooled plasma was thawed in a water bath at 37°C and centrifuged at 4,000 rpm for 5 min to remove any clots. The pH value was measured and adjusted to 7.4, if necessary. RPMI medium (pH 7.4) supplemented with 10% fetal calf serum was used. Working solutions (400 μM) of test compounds were prepared by diluting appropriate volume of the stock solutions with DMSO. Working solutions (400 μM) were spiked into plasma to achieve 2 μM final concentrations as loading solutions. The concentration of organic solvent in the final solutions was 0.5% DMSO. The dialysis instrument was assembled following manufacturer’s instructions. Aliquots of loading solution were loaded in triplicate to the donor side of each dialysis well and dialyzed against an equal volume of dialysis buffer. The plate was shaken and incubated for 6 hours in a humidified incubator with 5% CO2 at 37°C. At the end of dialysis, aliquots of dialysate and retentate were removed into sample collection plates. Each sample was matched with an opposite blank buffer or plasma, with a ratio of matrix:dialysis buffer of 50:50 (v:v) in each well and participated with 500μL of stop solution (50% acetonitrile/methanol; internal standards—200 ng/mL tolbutamide, labetalol and 50 ng/mL metformin). All sample collection plates were rotated at 800 rpm for 5 min to mix samples and centrifuged at 20°C, 4000 rpm for 20 min. Aliquots of supernatant of all the samples were removed and injected into LC-MS/MS. Results were calculated as the percentage of remaining parent compound in plasma or medium after incubation.

Structure (SMILES)	Medium binding [%]
N#Cc1ccc2nc(NC(=O)c3ccnc(C(F)(F)F)c3)n(CC(F)(F)F)c2c1 [Compound 44, O=C(c1ccnc(C(F)(F)F)c1)Nc2nc(ccc(C#N)c3)c3n2CC(F)(F)F]	88.7

Same assay, conditions: S1 Data

Structure (SMILES)	Media Binding [%]
N#Cc1ccc2nc(NC(=O)c3ccc(C(F)(F)F)nc3)n(CC(F)(F)F)c2c1 [Compound 45, O=C(c1ccc(C(F)(F)F)nc1)Nc2nc(ccc(C#N)c3)c3n2CC(F)(F)F]	83.98
N#Cc1ccc2nc(NC(=O)c3ccnc(C(F)(F)F)c3)n(CC(F)(F)F)c2c1 [Compound 44, O=C(c1ccnc(C(F)(F)F)c1)Nc2nc(ccc(C#N)c3)c3n2CC(F)(F)F]	88.65
Cn1nccc1C(=O)Nc1nc2ccc(C#N)cc2n1CC(C)(C)C [Compound 29, O=C(Nc1n(CC(C)(C)C)c(c2n1)cc(C#N)cc2)c3n(C)ncc3]	57.20

Target: T2, B2 (Homo sapiens, UniProt P30411)
T2 construct: expressed in transfected cells; host or cells: CHO
T2 sequence (P30411 1-391): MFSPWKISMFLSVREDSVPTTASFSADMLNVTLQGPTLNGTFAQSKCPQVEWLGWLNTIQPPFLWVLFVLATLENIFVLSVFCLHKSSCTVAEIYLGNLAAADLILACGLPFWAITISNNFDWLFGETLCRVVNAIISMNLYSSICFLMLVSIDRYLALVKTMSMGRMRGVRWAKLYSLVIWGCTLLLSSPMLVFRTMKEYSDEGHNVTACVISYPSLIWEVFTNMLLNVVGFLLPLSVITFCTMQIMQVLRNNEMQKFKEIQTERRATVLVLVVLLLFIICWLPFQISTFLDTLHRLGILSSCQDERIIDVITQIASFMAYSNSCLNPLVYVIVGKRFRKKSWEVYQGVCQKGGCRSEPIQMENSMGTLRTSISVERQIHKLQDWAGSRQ
Assay: Bioprofiling 6pt Antag B2 CHO
Type: cell-based
Details: antagonist readout vs Bradykinin
Method: as §1

Structure (SMILES)	IC50 [µM]
N#Cc1ccc2nc(NC(=O)c3ccc(C(F)(F)F)nc3)n(CC(F)(F)F)c2c1 [Compound 45, O=C(c1ccc(C(F)(F)F)nc1)Nc2nc(ccc(C#N)c3)c3n2CC(F)(F)F]	> 10
N#Cc1ccc2nc(NC(=O)c3ccnc(C(F)(F)F)c3)n(CC(F)(F)F)c2c1 [Compound 44, O=C(c1ccnc(C(F)(F)F)c1)Nc2nc(ccc(C#N)c3)c3n2CC(F)(F)F]	> 10
Cn1nccc1C(=O)Nc1nc2ccc(C#N)cc2n1CC(C)(C)C [Compound 29, O=C(Nc1n(CC(C)(C)C)c(c2n1)cc(C#N)cc2)c3n(C)ncc3]	> 10

Target: PDE3A (Homo sapiens, UniProt Q14432)
Assay: Bioprofiling 6pt Antag PDE3A
Type: biochemical
Details: substrate cAMP
Method: as §1

Sequence of PDE3A (Q14432 whole entry): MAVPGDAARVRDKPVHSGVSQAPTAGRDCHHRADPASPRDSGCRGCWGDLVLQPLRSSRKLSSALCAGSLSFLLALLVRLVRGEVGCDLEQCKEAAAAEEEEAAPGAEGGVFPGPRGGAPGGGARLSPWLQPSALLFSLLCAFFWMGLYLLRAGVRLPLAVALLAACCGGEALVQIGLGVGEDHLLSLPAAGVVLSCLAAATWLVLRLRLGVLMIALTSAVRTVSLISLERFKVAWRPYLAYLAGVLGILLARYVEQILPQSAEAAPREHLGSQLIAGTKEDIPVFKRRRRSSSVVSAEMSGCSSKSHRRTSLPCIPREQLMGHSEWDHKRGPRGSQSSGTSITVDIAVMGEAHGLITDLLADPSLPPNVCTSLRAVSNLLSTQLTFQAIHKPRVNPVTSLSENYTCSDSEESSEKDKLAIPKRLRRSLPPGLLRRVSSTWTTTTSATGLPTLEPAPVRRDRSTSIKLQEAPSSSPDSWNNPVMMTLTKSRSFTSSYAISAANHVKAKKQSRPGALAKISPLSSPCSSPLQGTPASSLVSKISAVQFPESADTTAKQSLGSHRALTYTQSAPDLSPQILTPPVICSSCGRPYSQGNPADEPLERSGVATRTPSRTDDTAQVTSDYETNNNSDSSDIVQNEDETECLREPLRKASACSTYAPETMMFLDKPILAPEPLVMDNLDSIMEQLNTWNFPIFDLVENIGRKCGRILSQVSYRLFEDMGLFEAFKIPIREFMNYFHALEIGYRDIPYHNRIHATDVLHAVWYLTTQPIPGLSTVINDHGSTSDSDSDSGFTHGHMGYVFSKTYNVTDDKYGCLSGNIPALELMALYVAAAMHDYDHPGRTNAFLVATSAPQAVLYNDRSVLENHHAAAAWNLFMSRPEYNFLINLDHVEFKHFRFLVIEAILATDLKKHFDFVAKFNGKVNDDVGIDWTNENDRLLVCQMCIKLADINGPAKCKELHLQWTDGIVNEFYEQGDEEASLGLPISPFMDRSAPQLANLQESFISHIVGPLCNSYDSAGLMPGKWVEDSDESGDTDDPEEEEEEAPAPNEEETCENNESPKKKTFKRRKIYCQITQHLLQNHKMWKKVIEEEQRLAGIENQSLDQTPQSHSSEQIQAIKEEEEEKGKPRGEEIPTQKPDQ

Structure (SMILES)	IC50 [µM]
N#Cc1ccc2nc(NC(=O)c3ccc(C(F)(F)F)nc3)n(CC(F)(F)F)c2c1 [Compound 45, O=C(c1ccc(C(F)(F)F)nc1)Nc2nc(ccc(C#N)c3)c3n2CC(F)(F)F]	> 10
N#Cc1ccc2nc(NC(=O)c3ccnc(C(F)(F)F)c3)n(CC(F)(F)F)c2c1 [Compound 44, O=C(c1ccnc(C(F)(F)F)c1)Nc2nc(ccc(C#N)c3)c3n2CC(F)(F)F]	2.7
Cn1nccc1C(=O)Nc1nc2ccc(C#N)cc2n1CC(C)(C)C [Compound 29, O=C(Nc1n(CC(C)(C)C)c(c2n1)cc(C#N)cc2)c3n(C)ncc3]	> 10

Target: T3, D2L (Homo sapiens, UniProt P14416)
T3 construct: expressed in transfected cells; host or cells: CHO
Assay: Bioprofiling 6pt Ag D2L CHO
Type: cell-based
Details: agonist readout
Method: as §1

T3 sequence (P14416 whole entry): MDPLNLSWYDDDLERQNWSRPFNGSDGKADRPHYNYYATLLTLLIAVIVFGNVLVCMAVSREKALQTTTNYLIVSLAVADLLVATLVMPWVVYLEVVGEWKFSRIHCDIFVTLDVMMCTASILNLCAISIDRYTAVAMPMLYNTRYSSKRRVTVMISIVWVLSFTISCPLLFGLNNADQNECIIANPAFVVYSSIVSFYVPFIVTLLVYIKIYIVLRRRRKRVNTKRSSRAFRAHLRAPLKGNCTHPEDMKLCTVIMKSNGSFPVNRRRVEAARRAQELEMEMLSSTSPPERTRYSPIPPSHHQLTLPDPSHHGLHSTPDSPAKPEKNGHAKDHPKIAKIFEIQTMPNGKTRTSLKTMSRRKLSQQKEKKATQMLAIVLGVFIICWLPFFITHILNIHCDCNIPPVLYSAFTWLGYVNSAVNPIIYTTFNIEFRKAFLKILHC

Structure (SMILES)	EC50 [µM]
N#Cc1ccc2nc(NC(=O)c3ccc(C(F)(F)F)nc3)n(CC(F)(F)F)c2c1 [Compound 45, O=C(c1ccc(C(F)(F)F)nc1)Nc2nc(ccc(C#N)c3)c3n2CC(F)(F)F]	> 10
N#Cc1ccc2nc(NC(=O)c3ccnc(C(F)(F)F)c3)n(CC(F)(F)F)c2c1 [Compound 44, O=C(c1ccnc(C(F)(F)F)c1)Nc2nc(ccc(C#N)c3)c3n2CC(F)(F)F]	> 10
Cn1nccc1C(=O)Nc1nc2ccc(C#N)cc2n1CC(C)(C)C [Compound 29, O=C(Nc1n(CC(C)(C)C)c(c2n1)cc(C#N)cc2)c3n(C)ncc3]	> 10

Target: T4, CB1 (Homo sapiens, UniProt P21554)
T4 construct: expressed in transfected cells; host or cells: CHO
Assay: Bioprofiling 6pt Ag CB1 CHO
Type: cell-based
Details: agonist readout
Method: as §1

T4 sequence (P21554 whole entry): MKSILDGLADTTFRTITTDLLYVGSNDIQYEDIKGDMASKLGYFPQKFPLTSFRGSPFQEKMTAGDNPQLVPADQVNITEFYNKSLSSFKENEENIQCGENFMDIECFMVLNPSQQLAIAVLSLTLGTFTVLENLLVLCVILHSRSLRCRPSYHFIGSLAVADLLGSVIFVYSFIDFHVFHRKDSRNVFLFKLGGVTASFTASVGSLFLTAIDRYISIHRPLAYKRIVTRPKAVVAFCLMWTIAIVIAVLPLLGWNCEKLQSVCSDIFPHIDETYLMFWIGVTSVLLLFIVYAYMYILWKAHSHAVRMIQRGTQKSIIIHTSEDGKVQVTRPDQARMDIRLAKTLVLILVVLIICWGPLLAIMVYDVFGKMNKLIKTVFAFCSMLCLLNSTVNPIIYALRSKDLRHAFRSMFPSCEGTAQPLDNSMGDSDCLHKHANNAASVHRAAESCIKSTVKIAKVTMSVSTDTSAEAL

Structure (SMILES)	EC50 [µM]
N#Cc1ccc2nc(NC(=O)c3ccc(C(F)(F)F)nc3)n(CC(F)(F)F)c2c1 [Compound 45, O=C(c1ccc(C(F)(F)F)nc1)Nc2nc(ccc(C#N)c3)c3n2CC(F)(F)F]	> 10
N#Cc1ccc2nc(NC(=O)c3ccnc(C(F)(F)F)c3)n(CC(F)(F)F)c2c1 [Compound 44, O=C(c1ccnc(C(F)(F)F)c1)Nc2nc(ccc(C#N)c3)c3n2CC(F)(F)F]	> 10
Cn1nccc1C(=O)Nc1nc2ccc(C#N)cc2n1CC(C)(C)C [Compound 29, O=C(Nc1n(CC(C)(C)C)c(c2n1)cc(C#N)cc2)c3n(C)ncc3]	> 10

Target: T5, A1 (Homo sapiens, UniProt P30542)
T5 construct: expressed in transfected cells; host or cells: CHO
T5 sequence (P30542 1-326): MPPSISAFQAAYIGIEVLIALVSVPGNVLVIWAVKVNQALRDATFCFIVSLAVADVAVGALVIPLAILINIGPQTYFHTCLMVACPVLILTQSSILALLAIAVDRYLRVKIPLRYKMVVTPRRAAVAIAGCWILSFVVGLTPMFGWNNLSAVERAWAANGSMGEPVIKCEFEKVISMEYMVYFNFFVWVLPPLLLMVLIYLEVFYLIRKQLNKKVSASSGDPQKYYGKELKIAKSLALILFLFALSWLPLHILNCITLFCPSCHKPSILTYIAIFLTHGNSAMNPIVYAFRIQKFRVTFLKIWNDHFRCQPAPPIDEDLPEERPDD
Assay: Bioprofiling 6pt Antag A1 CHO
Type: cell-based
Details: antagonist readout vs N6-Cyclopentyladenosine (CPA)
Method: as §1

Structure (SMILES)	IC50 [µM]
N#Cc1ccc2nc(NC(=O)c3ccc(C(F)(F)F)nc3)n(CC(F)(F)F)c2c1 [Compound 45, O=C(c1ccc(C(F)(F)F)nc1)Nc2nc(ccc(C#N)c3)c3n2CC(F)(F)F]	> 10
N#Cc1ccc2nc(NC(=O)c3ccnc(C(F)(F)F)c3)n(CC(F)(F)F)c2c1 [Compound 44, O=C(c1ccnc(C(F)(F)F)c1)Nc2nc(ccc(C#N)c3)c3n2CC(F)(F)F]	> 10
Cn1nccc1C(=O)Nc1nc2ccc(C#N)cc2n1CC(C)(C)C [Compound 29, O=C(Nc1n(CC(C)(C)C)c(c2n1)cc(C#N)cc2)c3n(C)ncc3]	> 10

Target: T6, Alpha2A (Homo sapiens, UniProt P08913)
T6 construct: expressed in transfected cells; host or cells: CHO
T6 sequence (P08913 1-465): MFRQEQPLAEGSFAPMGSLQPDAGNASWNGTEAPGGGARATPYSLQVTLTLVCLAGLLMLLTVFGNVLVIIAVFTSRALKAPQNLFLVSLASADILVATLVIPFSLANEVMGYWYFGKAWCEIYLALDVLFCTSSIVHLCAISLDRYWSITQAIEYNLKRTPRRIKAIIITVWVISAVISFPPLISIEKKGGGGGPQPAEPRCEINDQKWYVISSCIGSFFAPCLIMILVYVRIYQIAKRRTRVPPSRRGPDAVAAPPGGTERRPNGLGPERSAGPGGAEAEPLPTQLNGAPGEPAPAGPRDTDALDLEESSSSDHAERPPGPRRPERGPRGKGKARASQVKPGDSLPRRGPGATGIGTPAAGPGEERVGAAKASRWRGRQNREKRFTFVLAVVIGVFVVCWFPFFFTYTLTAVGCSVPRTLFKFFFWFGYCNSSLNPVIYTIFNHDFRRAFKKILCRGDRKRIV
Assay: Bioprofiling 6pt Antag Alpha2A CHO
Type: cell-based
Details: antagonist readout vs UK-14304
Method: as §1

Structure (SMILES)	IC50 [µM]
N#Cc1ccc2nc(NC(=O)c3ccc(C(F)(F)F)nc3)n(CC(F)(F)F)c2c1 [Compound 45, O=C(c1ccc(C(F)(F)F)nc1)Nc2nc(ccc(C#N)c3)c3n2CC(F)(F)F]	> 10
N#Cc1ccc2nc(NC(=O)c3ccnc(C(F)(F)F)c3)n(CC(F)(F)F)c2c1 [Compound 44, O=C(c1ccnc(C(F)(F)F)c1)Nc2nc(ccc(C#N)c3)c3n2CC(F)(F)F]	> 10
Cn1nccc1C(=O)Nc1nc2ccc(C#N)cc2n1CC(C)(C)C [Compound 29, O=C(Nc1n(CC(C)(C)C)c(c2n1)cc(C#N)cc2)c3n(C)ncc3]	> 10

Target: T7, H1 (Homo sapiens, UniProt P35367)
T7 construct: expressed in transfected cells; host or cells: CHO
Assay: Bioprofiling 6pt Ag H1 CHO
Type: cell-based
Details: agonist readout
Method: as §1

T7 sequence (P35367 whole entry): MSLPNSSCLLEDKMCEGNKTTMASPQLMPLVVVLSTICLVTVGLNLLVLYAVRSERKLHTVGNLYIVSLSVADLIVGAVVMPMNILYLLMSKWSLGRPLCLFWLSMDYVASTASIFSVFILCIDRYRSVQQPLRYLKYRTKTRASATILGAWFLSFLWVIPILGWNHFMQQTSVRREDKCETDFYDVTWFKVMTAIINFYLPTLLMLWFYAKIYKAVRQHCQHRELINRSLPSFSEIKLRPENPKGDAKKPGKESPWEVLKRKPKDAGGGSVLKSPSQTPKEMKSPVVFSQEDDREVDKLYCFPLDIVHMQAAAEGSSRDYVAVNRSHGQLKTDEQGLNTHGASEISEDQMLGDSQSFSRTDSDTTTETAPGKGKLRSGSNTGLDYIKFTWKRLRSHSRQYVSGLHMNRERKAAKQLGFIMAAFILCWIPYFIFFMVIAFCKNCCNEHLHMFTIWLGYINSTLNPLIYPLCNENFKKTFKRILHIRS

Structure (SMILES)	EC50 [µM]
N#Cc1ccc2nc(NC(=O)c3ccc(C(F)(F)F)nc3)n(CC(F)(F)F)c2c1 [Compound 45, O=C(c1ccc(C(F)(F)F)nc1)Nc2nc(ccc(C#N)c3)c3n2CC(F)(F)F]	> 10
N#Cc1ccc2nc(NC(=O)c3ccnc(C(F)(F)F)c3)n(CC(F)(F)F)c2c1 [Compound 44, O=C(c1ccnc(C(F)(F)F)c1)Nc2nc(ccc(C#N)c3)c3n2CC(F)(F)F]	> 10
Cn1nccc1C(=O)Nc1nc2ccc(C#N)cc2n1CC(C)(C)C [Compound 29, O=C(Nc1n(CC(C)(C)C)c(c2n1)cc(C#N)cc2)c3n(C)ncc3]	> 10

Tested on: CHO
Assay: Bioprofiling 6pt Ag CHO Hamster
Type: cell-based
Details: agonist readout
Method: as §1

Structure (SMILES)	EC50 [µM]
N#Cc1ccc2nc(NC(=O)c3ccc(C(F)(F)F)nc3)n(CC(F)(F)F)c2c1 [Compound 45, O=C(c1ccc(C(F)(F)F)nc1)Nc2nc(ccc(C#N)c3)c3n2CC(F)(F)F]	> 10
N#Cc1ccc2nc(NC(=O)c3ccnc(C(F)(F)F)c3)n(CC(F)(F)F)c2c1 [Compound 44, O=C(c1ccnc(C(F)(F)F)c1)Nc2nc(ccc(C#N)c3)c3n2CC(F)(F)F]	> 10
Cn1nccc1C(=O)Nc1nc2ccc(C#N)cc2n1CC(C)(C)C [Compound 29, O=C(Nc1n(CC(C)(C)C)c(c2n1)cc(C#N)cc2)c3n(C)ncc3]	> 10

Target: T6, Alpha2A
Assay: Bioprofiling 6pt Ag Alpha2A CHO
Type: cell-based
Details: agonist readout
Method: as §1

Structure (SMILES)	EC50 [µM]
N#Cc1ccc2nc(NC(=O)c3ccc(C(F)(F)F)nc3)n(CC(F)(F)F)c2c1 [Compound 45, O=C(c1ccc(C(F)(F)F)nc1)Nc2nc(ccc(C#N)c3)c3n2CC(F)(F)F]	> 10
N#Cc1ccc2nc(NC(=O)c3ccnc(C(F)(F)F)c3)n(CC(F)(F)F)c2c1 [Compound 44, O=C(c1ccnc(C(F)(F)F)c1)Nc2nc(ccc(C#N)c3)c3n2CC(F)(F)F]	> 10
Cn1nccc1C(=O)Nc1nc2ccc(C#N)cc2n1CC(C)(C)C [Compound 29, O=C(Nc1n(CC(C)(C)C)c(c2n1)cc(C#N)cc2)c3n(C)ncc3]	> 10

Source: publication PMC7932521, “2-aminobenzimidazoles for leishmaniasis: From initial hit discovery to in vivo profiling” (PLoS Neglected Tropical Diseases, 2021)
